Each compound was assayed against T1, Type II 5α-Reductase from Human Prostate (Homo sapiens, UniProt P31213) (assay: Human Type II 5α-reductase assay (conversion of [3H]-testosterone to 5α-reduced metabolites)). Conditions: pH 5.5, 0.3 μM; sodium acetate pH 5.5, 25°, 30 min; compared to control reaction mixtures; read-out: percent inhibition of Type II AR.
T1 construct: The same procedure as above was used for preparations using tissue from prostate surgery; from tissue; host or cells: human prostate tissue from surgery, homogenate, 100,000×g pellet
T1 sequence (P31213 1-254): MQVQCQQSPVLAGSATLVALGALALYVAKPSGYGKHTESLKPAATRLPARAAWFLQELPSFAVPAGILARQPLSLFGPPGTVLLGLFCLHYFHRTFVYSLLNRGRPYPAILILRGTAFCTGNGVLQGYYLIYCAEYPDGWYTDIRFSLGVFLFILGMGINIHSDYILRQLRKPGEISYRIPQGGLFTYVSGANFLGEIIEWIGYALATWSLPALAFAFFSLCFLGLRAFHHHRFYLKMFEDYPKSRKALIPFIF
Type: biochemical

Structure (SMILES) | inhibition at 0.3 µM
C[C@]12CCC(=O)N[C@@H]1CCc1cc(Sc3ccccc3)ccc12 [Example 22, (4aR)-(10bR)-8-phenylthio-10b-methyl-1,2,3,4,4a,5,6,10b-octahydrobenzo[f]quinolin-3-one] | 19%
COc1ccc(-c2ccc3c(c2)CC[C@H]2N(C)C(=O)CC[C@]32C)cc1OC [Example 42, (+)-(4 aR)-(10bR)-4-methyl-8-(3,4-dimethoxyphenyl)-10b-methyl-1,2,3,4,4a,5,6,10b-octahydrobenzo[f]quinolin-3-one] | 32%
COc1ccc(-c2ccc3c(c2)CC[C@H]2N(C)C(=O)CC[C@]32C)cc1 [Example 47, (+)-(4aR)-(10bR)-4-methyl-8-(4-methoxyphenyl)-10b-methyl-1,2,3,4,4a,5,6,10b-octahydrobenzo[f]quinolin-3-one] | 16%
COc1cccc(-c2ccc3c(c2)CC[C@H]2N(C)C(=O)CC[C@]32C)c1 [Example 48, (+)-(4aR)-(10bR)-4-methyl-8-(3-methoxyphenyl)-10b-methyl-1,2,3,4,4a,5,6,10b-octahydrobenzo[f]quinolin-3-one] | 12%
CN1C(=O)CC[C@]2(C)c3ccc(-c4cccnc4)cc3CC[C@@H]12 [Example 54, (+)-(4aR)-(10bR)-4-methyl-8-(3-pyridyl)-10b-methyl-1,2,3,4,4a,5,6,10b-octahydrobenzo[f]quinolin-3-one] | 22%
CN(C)c1ccc(-c2ccc3c(c2)CC[C@H]2N(C)C(=O)CC[C@]32C)cc1 [Example 59, (+)-(4aR)-(10bR)-4-methyl-8-(4-dimethylaminophenyl)-10b-methyl-1,2,3,4,4a,5,6,10b-octahydrobenzo[f]quinolin-3-one] | 31%
CN1C(=O)CC[C@]2(C)c3ccc(-c4ccc5cc(O)ccc5c4)cc3CC[C@@H]12 [Example 60, (+)-(4aR)-(10bR)-4-methyl-8-(2-[6-hydroxy]naphthyl)-10b-methyl-1,2,3,4,4a,5,6,10b-octahydrobenzo[f]quinolin-3-one] | 42%
CN1C(=O)CC[C@]2(C)c3ccc(-c4ccc5c(c4)OCO5)cc3CC[C@@H]12 [Example 70, (+)-(4aR)-(10bR)-4-methyl-8-(3,4-methylenedioxyphenyl)-10b-methyl-1,2,3,4,4a,5,6,10b-octahydrobenzo[f]quinolin-3-one] | 36%
CN1C(=O)CC[C@]2(C)c3ccc(-c4ccc(OC(F)(F)F)cc4)cc3CC[C@@H]12 [Example 78, (+)-(4aR)-(10bR)-4-methyl-8-(4-trifluoromethoxyphenyl)-10b-methyl-1,2,3,4,4a,5,6,10b-octahydrobenzo[f]quinolin-3-one] | 3%
Cc1cc(C)cc(-c2ccc3c(c2)CC[C@H]2N(C)C(=O)CC[C@]32C)c1 [Example 83, (+)-(4aR)-(10bR)-4-methyl-8-(3,5-dimethylphenyl)-10b-methyl-1,2,3,4,4a,5,6,10b-octahydrobenzo[f]quinolin-3-one] | 12%
CN1C(=O)CC[C@]2(C)c3ccc(-c4ccc(F)cc4)cc3CC[C@@H]12 [Example 85, (+)-(4aR)-(10bR)-4-methyl-8-(4-fluorophenyl)-10b-methyl-1,2,3,4,4a,5,6,10b-octahydrobenzo[f]quinolin-3-one] | 12%
CN1C(=O)CC[C@]2(C)c3ccc(-c4cccc(N)c4)cc3CC[C@@H]12 [Example 90, (+)-(4aR)-(10bR)-4-methyl-8-(3-aminophenyl)-10b-methyl-1,2,3,4,4a,5,6,10b-octahydrobenzo[f]quinolin-3-one] | 22%
C[C@]12CCC(=O)N[C@@H]1CCc1cc(-c3cccc([N+](=O)[O-])c3)ccc12 [Example 93, (+)-(4aR)-(10bR)-8-(3-nitrophenyl)-10b-methyl-1,2,3,4,4a,5,6,10b-octahydrobenzo[f]quinolin-3-one] | 9%
CN1C(=O)CC[C@]2(C)c3ccc(-c4ccc(Cl)cc4Cl)cc3CC[C@@H]12 [Example 94, (+)-(4aR)-(10bR)-4-methyl-8-(2,4-dichlorophenyl)-10b-methyl-1,2,3,4,4a,5,6,10b-octahydrobenzo[f]quinolin-3-one] | 1%
CN1C(=O)CC[C@]2(C)c3ccc(Sc4ccccc4)cc3CC[C@@H]12 [Example 116, (4aR)-(10bR)-4,10b-dimethyl-8-phenylthio-1,2,3,4, -4a,5,6,10b-octahydrobenzo[f]quinolin-3-one] | 24%
CN1C(=O)CC[C@]2(C)c3ccc(-c4ccc(C#N)cc4)cc3CC[C@@H]12 [Example 121, (+)-(4aR)-(10bR)-4-methyl-8-(4-cyanophenyl)-10b-methyl-1,2,3,4,4a,5,6,10b-octahydrobenzo[f]quinolin-3-one] | 41%
C[C@]12C=CC(=O)N[C@@H]1CCc1cc(-c3cccc4ccccc34)ccc12 [Example 140, (+)-(4aR)-(10bR)-8-(1-naphthyl)-10b-methyl-3,4,4a,5,6,10b-hexahydrobenzo[f]quinolin-3-one] | 20%
C[C@]12C=CC(=O)N[C@@H]1CCc1cc(-c3cccc([N+](=O)[O-])c3)ccc12 [Example 141, (+)-(4aR)-(10bR)-8-(3-nitrophenyl)-10b-methyl-3,4,4a,5,6,10b-hexahydrobenzo[f]quinolin-3-one] | 19%
C[C@]12CCC(=O)N[C@@H]1CCc1cc(-c3cc(C(F)(F)F)nc4c(C(F)(F)F)cccc34)ccc12 [Example 197, (+)-(4aR)-(10bR)-8-(4-[2,8-bistrifluoromethyl]quinolinyl)-10b-methyl-1,2,3,4,4a,5,6,10b-octahydrobenzo[f]quinolin-3-one] | 37%
CN1C(=O)CC[C@]2(C)c3ccc(NC(=O)c4cccc([N+](=O)[O-])c4)cc3CC[C@@H]12 [Example 268, (+)-(4aR)-(10bR)-4,10b-dimethyl-8-(3-nitrobenzoylamino)-1,2,3,4,4a,5,6,10b-octahydrobenzo[f]quinolin-3-one] | 18%
CN1C(=O)CC[C@]2(C)c3ccc(NC(=O)c4ccc(N)cc4)cc3CC[C@@H]12 [Example 271, (4aR)-(10bR)-4,10b-dimethyl-8-(4-aminobenzoylamino)-1,2,3,4,4a,5,6,10b-octahydrobenzo[f]quinolin-3-one] | 36%

Further lines, results first:

inhibition at 0.3 µM | Structure (SMILES)
44% | CN1C(=O)CC[C@]2(C)c3ccc(-c4ccc5c(c4)CCC5O)cc3CC[C@@H]12 (single isomer, unassigned; (+)) [Example 245]
27% | CN1C(=O)CC[C@]2(C)c3ccc(-c4cccc(F)c4)cc3CC[C@@H]12 [Example 44, (+)-(4aR)-(10bR)-4-methyl-8-(3-fluorophenyl)-10b-methyl-1,2,3,4,4a,5,6,10b-octahydrobenzo[f]quinolin-3-one]
45% | C[C@]12CCC(=O)N[C@@H]1CCc1cc(-c3cnc4ccccc4c3)ccc12 [Example 45, (+)-(4aR)-(10bR)-8-(3-quinolinyl)-10b-methyl-1,2,3,4,4a,-5,6,10b-octahydrobenzo[f]quinolin-3-one]
20% | CN1C(=O)CC[C@]2(C)c3ccc(-c4cccc(C=O)c4)cc3CC[C@@H]12 [Example 57, (+)-(4aR)-(10bR)-4-methyl-8-(3-formylphenyl)-10b-methyl-1,2,3,4,4a,5,6,10b-octahydrobenzo[f]quinolin-3-one]
19% | CN1C(=O)CC[C@]2(C)c3ccc(-c4cccc(Cl)c4)cc3CC[C@@H]12 [Example 63, (+)-(4aR)-(10bR)-4-methyl-8-(3-chlorophenyl)-10b-methyl-1,2,3,4,4a,5,6,10b-octahydrobenzo[f]quinolin-3-one]
34% | CN1C(=O)CC[C@]2(C)c3ccc(-c4ccc(C(F)(F)F)cc4)cc3CC[C@@H]12 [Example 79, (+)-(4aR)-(10bR)-4-methyl-8-(4-trifluoromethylphenyl)-10b-methyl-1,2,3,4,4a,5,6,10b-octahydrobenzo[f]quinolin-3-one]
15% | CCOc1ccc(-c2ccc(-c3ccc4c(c3)CC[C@H]3N(C)C(=O)CC[C@]43C)cc2)cc1 [Example 89, (+)-(4aR)-(10bR)-4-methyl-8-(4-[4-ethoxy]biphenyl)-10b-methyl-1,2,3,4,4a,5,6,10b-octahydrobenzo[f]quinolin-3-one]
10% | C[C@]12CCC(=O)N[C@@H]1CCc1cc(-c3cccc4ccccc34)ccc12 [Example 92, (+)-(4aR)-(10bR)-8-(1-naphthyl)-10b-methyl-1,2,3,4,4a,5,6,10b-octahydrobenzo[f]quinolin-3-one]
36% | CC(C)C(=O)c1ccc(-c2ccc3c(c2)CC[C@H]2N(C)C(=O)CC[C@]32C)cc1 [Example 122, (+)-(4aR)-(10bR)-4-methyl-8-(4-[isopropylcarbonyl]phenyl)-10b-methyl-1,2,3,4,4a,5,6,10b-octahydrobenzo[f]quinolin-3-one]
40% | CSc1ccccc1-c1ccc2c(c1)CC[C@H]1N(C)C(=O)CC[C@]21C [Example 127, (+)-(4aR)-(10bR)-4-methyl-8-(2-methylthiophenyl)-10b-methyl-1,2,3,4,4a,5,6,10b-octahydrobenzo[f]quinolin-3-one]
7% | C[C@]12CCC(=O)N[C@@H]1CCc1cc(-c3nccs3)ccc12 [Example 198, (+)-(4aR)-(10bR)-8-(2-thiazolyl)-10b-methyl-1,2,3,4,4a,-5,6,10b-octahydrobenzo[f]quinolin-3-one]
30% | C[C@]12CCC(=O)N[C@@H]1CCc1cc(-c3ccc([N+](=O)[O-])cn3)ccc12 [Example 199, (+)-(4aR)-(10bR)-8-(5-nitro-2-pyridinyl)-10b-methyl-1,2,3,4,4a,5,6,10b-octahydrobenzo[f]quinolin-3-one]

— patent US5622962A, “5α-reductase inhibitors” (priority 1995, dated 1997)
